Assay results from patent US20070071681A1, “Apparatus and method for computer modeling type 1 diabetes” (Entelos, Inc., priority 2005, published 2007).
Like-named read-outs stand apart in the source and are kept apart here.

What was measured:
[1] = system: recent onset diabetic patients; conditions: cited from earlier work; for Therapeutic response: insulin tolerization
[2] = system: average virtual NOD mouse; test: Simulation of therapy protocols in the average virtual NOD mouse (computer model of type 1 diabetes); conditions: expectation from published data
Text: One application of a NOD mouse type 1 diabetes model is to improve understanding of type 1 diabetes pathogenesis in the NOD mouse. Model development therefore focused on islet β cell autoimmunity and tolerance, as well as related mechanisms and interventions. To provide for general immunologic function and not only progression to diabetes, the development effort included representation of several NOD mouse phenotypes. The first phenotype was an average diabetic virtual mouse. […] Typically, a simulation of the average virtual mouse concludes shortly after diabetes diagnosis, which is consistent with post-diabetic sacrifice of NOD mice in the laboratory. […] Additional virtual mice, each with different clinical behaviors and/or underlying pathophysiologies, have also been generated. Similarly, development of modals of type 1 diabetes in other mammals, such as humans, can include the development of various virtual patients representing normal animals or animals having varying degrees of severity or progression of type 1 diabetes.
Because diabetes is typically assessed by measuring blood or urinary glucose, blood glucose levels were represented in the model's clinical read-out. Hyperglycemia (a diabetes indicator) was defined as a glucose level in excess of a commonly used standard (e.g., 200, 250, 300, 350 mg/dl). Glucose control was regulated based on a mathematical relationship describing interactions between blood insulin and glucose concentrations.
These include (i) dynamics of diabetes onset, (ii) dynamics of pancreatic lymph node (PLN) lymphocyte activation and expansion, and (iii) dynamics of islet infiltrate.
Numerous interventions have been tested in the NOD mouse. A major purpose of implementing selected interventions is to provide constraints for the virtual mouse, where constraints are defined as additional behavioral criteria that the virtual mouse should reproduce in a manner substantially consistent with published data. […]

NOD mouse = conditions: cited from earlier work; for Protection in the NOD mouse: protective therapeutic interventions suggested to depend on NK cell activities; for Protection from diabetes: pre-diabetic NOD mice
BB rats = conditions: cited from earlier work

Q: With “insulin: insulin tolerization therapy tested in human clinical trials” as the compound, how does the Therapeutic response ([1]; general clinical trial population) read?
A: Its Therapeutic response is “responded poorly”.

Q: And the Therapeutic response ([1]; patients characterized by high insulin autoantibody titers)?
A: The Therapeutic response was “better therapeutic responses”.

Q: Which results are given for “Exendin-4: exendin-4; enhances glucose-dependent insulin secretion”?
A: Expected virtual mouse outcome ([2]; Exendin-4, Ogawa 2004 protocol): No remission; Incidence (NOD mouse; Exendin-4, Ogawa 2004, 7-17 days after diagnosis of diabetes, 12 nmol/kg for 4 consec. days twice): No remission

Q: For poly(I:C), which “Protection in the NOD mouse” value (NOD mouse) is on record?
A: Its value is “protective”.

Q: Which “Expected virtual mouse outcome” value ([2]; Oral insulin, Homann 1999 (1 mg), at 45 weeks) does the source give for “Oral insulin: orally administered (porcine) insulin for induction of oral tolerance” here?
A: The value was “No diabetes at 45”.

Q: And the “Expected virtual mouse outcome” value ([2]; Oral insulin, Zhang 1991 (1 mg), at 52 weeks)?
A: Its value is “No diabetes at 52 weeks”.

Q: What about the Protection from diabetes (BB rats) of the same compound?
A: The Protection from diabetes was “not”.

Q: And the Incidence (NOD mouse; Oral insulin, Homann 1999 (1 mg), Rx 5-45 weeks, at 45 weeks, vs 63% control)?
A: Its Incidence is 26% treated vs.

Q: What about the Incidence (NOD mouse; Oral insulin, Zhang 1991 (0.1 mg), Rx 5-52 weeks, at 52 weeks, vs 49% control) of the same compound?
A: Its Incidence is 44% treated vs.

Q: What about the Incidence (NOD mouse; Oral insulin, Zhang 1991 (1 mg), Rx 5-52 weeks, at 52 weeks, vs 49% control) of the same compound?
A: The Incidence was 26% treated vs.

Q: What about the Protection against diabetes (NOD mouse; oral administration of insulin, induction of oral tolerance) of the same compound?
A: Its Protection against diabetes is “protect against diabetes”.

Q: What about the Protection from diabetes (NOD mouse) of the same compound?
A: The Protection from diabetes was “protection”.

Q: Which “Human clinical trial results” value ([1]; recent onset diabetic patients, Herold 2002) does the source give for “hOKT3γ1 (Ala-Ala): modified, dimeric non-FcR binding anti CD3 antibody used in human clinical trials” here?
A: Its value is “promising”.

Q: For `NC(=O)c1cccnc1` [nicotinamide], which Protection from diabetes (BB rats) is on record?
A: Its Protection from diabetes is “not”.

Q: And the Protection from diabetes (NOD mouse)?
A: The Protection from diabetes was “protection”.

Q: For `CN(C(=O)c1c(O)c2ccccc2n(C)c1=O)c1ccccc1` [linomide], which “Protection in the NOD mouse” value (NOD mouse) is on record?
A: Its value is “protection”.

Q: For IFN-α, which “Protection in the NOD mouse” value (NOD mouse) is on record?
A: Its value is “protective”.

Q: For “Exogenous TGF-β: exogenous TGF-β delivered as 200 μg of pCMV-TGF-β1”, which Incidence (NOD mouse; Exogenous TGF-β, Piccirillo 1998, 9-32 wks, 200 μg of pCMV-TGF-β1 every 2 wks, at 32 wks, vs 100% control) is on record?
A: Its Incidence is 42% vs. 100% control at 32 wks.

Q: What about the Insulitis (NOD mouse; Exogenous TGF-β, Piccirillo 1998) of the same compound?
A: Its Insulitis is “Reduced severity of insulitis”.

Q: And the Other observations (NOD mouse; Exogenous TGF-β, Piccirillo 1998, islet mRNA levels)?
A: Its Other observations is “Reduced mRNA levels of islet IL-12 & IFN-γ”.
